Test results: paper PMC10460844, “Real‐Time Monitoring of Multitarget Antimicrobial Mechanisms of Peptoids Using Label‐Free Imaging with Optical Diffraction Tomography” (Advanced Science, 2023)
Each block holds one compound with its values, some of them ahead of it. Square brackets hold non-standard residues; d marks the D form. Peptide text beside a SMILES is read from it. Gly(N(CH2)2(3-indolyl)) = O=C(O)CNCCc1c[nH]c2ccccc12; Nspe = C[C@H](NCC(=O)O)c1ccccc1; Nlys = NCCCCNCC(=O)O

How the values were obtained:
[1] = Analytical reversed-phase HPLC elution (hydrophobicity); type: physicochemical; details: Table S1; analytical RP-HPLC, SunFire C18, water/ACN + 0.1% TFA, 5 to 100% B linear over 30 min, 1 mL/min, UV 220 nm; approximate comparison of hydrophobicity
Method: 7. HPLC chromatogram, retention time (tR), and LC-MS data
HPLC analysis of peptoids was conducted using a Waters HPLC system equipped with a Waters 2489 UV/Visible Detector, 1525 Binary HPLC Pump, 2707 Autosampler, 5CH column oven, and a C18 column (SunFire C18, 4.6 × 250 mm, 5 μm; Waters Corp., Milford, MA, USA). The mobile phases were deionized water (A, with + 0.1% TFA) and acetonitrile (ACN; B, with + 0.1% TFA). Before sample injection, the column was conditioned with 5% B for 10 min. Then, the mobile phase was maintained at 5% B for 2 min, followed by increasing B to 100% using a linear gradient over 30 min. At this point, 100% B was maintained for 5 additional min. The flow rate of the mobile phase was 1 mL/min. The sample was detected by measuring absorbance at 220 nm. […]

[2] = test system: rat erythrocytes; experiment: Hemolysis assay; type: cell-based; details: for HC10 / HC50: pH 7.4
Method: The hemolysis assay was performed using rat erythrocytes in phosphate‐buffered saline (PBS), as reported by Mendes et al.^[ [45] ^] Animal studies were approved by the Laboratory Animal Resource Center of Gwangju Institute of Science and Technology. Blood was collected from a 13‐week‐old male Sprague‐Dawley rat in tubes containing 158 USP units of sodium heparin to prevent coagulation and centrifuged at 1000 rpm for 10 min at 4 °C. Plasma was removed carefully and erythrocyte pellets were washed three times with PBS (35 mM phosphate, pH 7.4, 150 mM NaCl). Next, 150 µL of a 10% erythrocyte suspension was mixed with 50 µL of serially diluted peptoids (0–100 µM) in a 96‐well black polypropylene plates (Greiner, Kremsmünster, Austria). Untreated erythrocytes and cells lysed by the addition of 1% Triton X‐100 were used as negative and positive controls, respectively, with the 1% Triton X‐100‐treated wells being accepted to represent 100% hemolysis. The reaction mixture was incubated at 37 °C for 60 min, and the plates were centrifuged at 1000 rpm for 15 min. Aliquots (150 µL) of the supernatant were transferred to fresh 96‐well plates, and the absorbance of each well was measured at 540 nm using a microplate reader. Hemolysis induced by peptoids was calculated as the percentage value of Triton X‐100 lysed cells. The percentage of hemolysis by the extracts was calculated according to the following formula: % hemolysis = [(Abs 540 nm in the peptoid solution – Abs 540 nm in PBS) / (Abs 540 nm in 1% Triton X‐100 – Abs 540 nm in PBS)] × 100. HC10 and HC50 were defined as the peptoid concentrations that caused 10% and 50% hemolysis in rat erythrocytes, respectively. H max indicates the percentage of hemolysis observed at the maximum peptoid concentration, 100 µM throughout this study.

Compound: C[C@@H](c1ccccc1)N(CC(N)=O)C(=O)CN(C(=O)CN(CCCCN)C(=O)CN(C(=O)CN(C(=O)CN(CCCCN)C(=O)CN(CCc1c[nH]c2ccccc12)C(=O)CN(CCc1c[nH]c2ccccc12)C(=O)CN(CCCCN)C(=O)CN(CCc1c[nH]c2ccccc12)C(=O)CN(CCc1c[nH]c2ccccc12)C(=O)CNCCCCN)[C@@H](C)c1ccccc1)[C@@H](C)c1ccccc1)[C@@H](C)c1ccccc1 [peptoid 21]
HPLC elution [1]: 53.2 % MeCN | Hmax (100 µM) [2]: 83.7±2.0% | HC10 [2]: 23.2 µM | HC50 [2]: 64.9 µM

Compound: C[C@@H](c1ccccc1)N(CC(=O)N(CCc1c[nH]c2ccccc12)CC(=O)N(CCCCN)CC(=O)N(CC(=O)N(CCc1c[nH]c2ccccc12)CC(=O)N(CCCCN)CC(=O)N(CC(=O)N(CCc1c[nH]c2ccccc12)CC(=O)N(CCCCN)CC(=O)N(CC(=O)N(CCc1c[nH]c2ccccc12)CC(N)=O)[C@@H](C)c1ccccc1)[C@@H](C)c1ccccc1)[C@@H](C)c1ccccc1)C(=O)CNCCCCN [peptoid 22] (H-[Nlys][Nspe][Gly(N(CH2)2(3-indolyl))][Nlys][Nspe][Gly(N(CH2)2(3-indolyl))][Nlys][Nspe][Gly(N(CH2)2(3-indolyl))][Nlys][Nspe][Gly(N(CH2)2(3-indolyl))]-NH2)
HPLC elution [1]: 54.1 % MeCN | Hmax (100 µM) [2]: 108.6±1.1% | HC10 [2]: 6.9 µM | HC50 [2]: 19.4 µM

Compound: NCCCCNCC(=O)N(CCc1c[nH]c2ccccc12)CC(=O)N(CCc1c[nH]c2ccccc12)CC(=O)N(CCCCN)CC(=O)N(CCc1c[nH]c2ccccc12)CC(=O)N(CCc1c[nH]c2ccccc12)CC(=O)N(CCCCN)CC(=O)N(CCc1c[nH]c2ccccc12)CC(=O)N(CCc1c[nH]c2ccccc12)CC(=O)N(CCCCN)CC(=O)N(CCc1c[nH]c2ccccc12)CC(=O)N(CCc1c[nH]c2ccccc12)CC(N)=O [peptoid 23] (H-[Nlys][Gly(N(CH2)2(3-indolyl))][Gly(N(CH2)2(3-indolyl))][Nlys][Gly(N(CH2)2(3-indolyl))][Gly(N(CH2)2(3-indolyl))][Nlys][Gly(N(CH2)2(3-indolyl))][Gly(N(CH2)2(3-indolyl))][Nlys][Gly(N(CH2)2(3-indolyl))][Gly(N(CH2)2(3-indolyl))]-NH2)
HPLC elution [1]: 53.0 % MeCN | Hmax (100 µM) [2]: 72.2±0.3% | HC10 [2]: 17.1 µM | HC50 [2]: 45.2 µM

Compound: C[C@@H](c1ccccc1)N(CC(N)=O)C(=O)CN(CCCCN)C(=O)CN(CCCCN)C(=O)CN(C(=O)CN(C(=O)CN(CCCCN)C(=O)CN(CCc1c[nH]c2ccccc12)C(=O)CN(C(=O)CN(CCCCN)C(=O)CN(C(=O)CN(C(=O)CNCCCCN)[C@@H](C)c1ccccc1)[C@@H](C)c1ccccc1)[C@@H](C)c1ccccc1)[C@@H](C)c1ccccc1)[C@@H](C)c1ccccc1 [peptoid 24]
HPLC elution [1]: 49.4 % MeCN | Hmax (100 µM) [2]: 1.5±0.0% | HC10 [2]: > 100 µM | HC50 [2]: > 100 µM

Compound: C[C@@H](c1ccccc1)N(CC(N)=O)C(=O)CN(C(=O)CN(CCCCN)C(=O)CN(C(=O)CN(CCCCN)C(=O)CN(CCCCN)C(=O)CN(CCc1c[nH]c2ccccc12)C(=O)CN(C(=O)CN(CCCCN)C(=O)CN(C(=O)CN(C(=O)CNCCCCN)[C@@H](C)c1ccccc1)[C@@H](C)c1ccccc1)[C@@H](C)c1ccccc1)[C@@H](C)c1ccccc1)[C@@H](C)c1ccccc1 [peptoid 25]
HPLC elution [1]: 50.8 % MeCN | Hmax (100 µM) [2]: 2.7±0.4% | HC10 [2]: > 100 µM | HC50 [2]: > 100 µM

Compound: C[C@@H](c1ccccc1)N(CC(N)=O)C(=O)CN(C(=O)CN(CCCCN)C(=O)CN(C(=O)CN(C(=O)CN(CCCCN)C(=O)CN(CCc1c[nH]c2ccccc12)C(=O)CN(CCCCN)C(=O)CN(CCCCN)C(=O)CN(C(=O)CN(C(=O)CNCCCCN)[C@@H](C)c1ccccc1)[C@@H](C)c1ccccc1)[C@@H](C)c1ccccc1)[C@@H](C)c1ccccc1)[C@@H](C)c1ccccc1 [peptoid 26]
HPLC elution [1]: 49.5 % MeCN | Hmax (100 µM) [2]: 0.7±0.1% | HC10 [2]: > 100 µM | HC50 [2]: > 100 µM

Compound: C[C@@H](c1ccccc1)N(CC(N)=O)C(=O)CN(C(=O)CN(CCCCN)C(=O)CN(C(=O)CN(C(=O)CN(CCCCN)C(=O)CN(CCc1c[nH]c2ccccc12)C(=O)CN(C(=O)CN(CCCCN)C(=O)CN(C(=O)CN(CCCCN)C(=O)CNCCCCN)[C@@H](C)c1ccccc1)[C@@H](C)c1ccccc1)[C@@H](C)c1ccccc1)[C@@H](C)c1ccccc1)[C@@H](C)c1ccccc1 [peptoid 27]
HPLC elution [1]: 50.7 % MeCN | Hmax (100 µM) [2]: 5.9±0.2% | HC10 [2]: > 100 µM | HC50 [2]: > 100 µM

Compound: C[C@@H](c1ccccc1)N(CC(N)=O)C(=O)CN(C(=O)CN(CCCCN)C(=O)CN(C(=O)CN(CCCCN)C(=O)CN(CCCCN)C(=O)CN(C(=O)CN(C(=O)CN(CCCCN)C(=O)CN(C(=O)CN(C(=O)CN(CCCCN)C(=O)CN(CCc1c[nH]c2ccccc12)C(=O)CNCCc1c[nH]c2ccccc12)[C@@H](C)c1ccccc1)[C@@H](C)c1ccccc1)[C@@H](C)c1ccccc1)[C@@H](C)c1ccccc1)[C@@H](C)c1ccccc1)[C@@H](C)c1ccccc1 [peptoid 35]
HPLC elution [1]: 51.8 % MeCN | Hmax (100 µM) [2]: 82.6±3.2% | HC10 [2]: 20.4 µM | HC50 [2]: 63.0 µM

More lines, main results first:

HPLC elution [1]: 48.6 % MeCN
Compound: C[C@@H](c1ccccc1)N(CC(=O)N(CCCCN)CC(=O)N(CCCCN)CC(=O)N(CCc1c[nH]c2ccccc12)CC(=O)N(CCc1c[nH]c2ccccc12)CC(N)=O)C(=O)CN(CCCCN)C(=O)CN(C(=O)CN(C(=O)CN(CCCCN)C(=O)CN(C(=O)CN(C(=O)CNCCCCN)[C@@H](C)c1ccccc1)[C@@H](C)c1ccccc1)[C@@H](C)c1ccccc1)[C@@H](C)c1ccccc1 [peptoid 28] (H-[Nlys][Nspe][Nspe][Nlys][Nspe][Nspe][Nlys][Nspe][Nlys][Nlys][Gly(N(CH2)2(3-indolyl))][Gly(N(CH2)2(3-indolyl))]-NH2)
Hmax (100 µM) [2]: 8.9±1.4% | HC10 [2]: > 100 µM | HC50 [2]: > 100 µM

HPLC elution [1]: 48.8 % MeCN
Compound: C[C@@H](c1ccccc1)N(CC(=O)N(CCCCN)CC(=O)N(CC(=O)N(CC(=O)N(CCCCN)CC(=O)N(CCc1c[nH]c2ccccc12)CC(=O)N(CCc1c[nH]c2ccccc12)CC(N)=O)[C@@H](C)c1ccccc1)[C@@H](C)c1ccccc1)C(=O)CN(CCCCN)C(=O)CN(CCCCN)C(=O)CN(C(=O)CN(C(=O)CNCCCCN)[C@@H](C)c1ccccc1)[C@@H](C)c1ccccc1 [peptoid 30] (H-[Nlys][Nspe][Nspe][Nlys][Nlys][Nspe][Nlys][Nspe][Nspe][Nlys][Gly(N(CH2)2(3-indolyl))][Gly(N(CH2)2(3-indolyl))]-NH2)
Hmax (100 µM) [2]: 8.4±0.5% | HC10 [2]: > 100 µM | HC50 [2]: > 100 µM

HPLC elution [1]: 50.2 % MeCN
Compound: C[C@@H](c1ccccc1)N(CC(=O)N(CCCCN)CC(=O)N(CC(=O)N(CC(=O)N(CCCCN)CC(=O)N(CC(=O)N(CC(=O)N(CCCCN)CC(=O)N(CCc1c[nH]c2ccccc12)CC(=O)N(CCc1c[nH]c2ccccc12)CC(N)=O)[C@@H](C)c1ccccc1)[C@@H](C)c1ccccc1)[C@@H](C)c1ccccc1)[C@@H](C)c1ccccc1)C(=O)CN(CCCCN)C(=O)CNCCCCN [peptoid 31] (H-[Nlys][Nlys][Nspe][Nlys][Nspe][Nspe][Nlys][Nspe][Nspe][Nlys][Gly(N(CH2)2(3-indolyl))][Gly(N(CH2)2(3-indolyl))]-NH2)
Hmax (100 µM) [2]: 18.4±5.0% | HC10 [2]: 59.0 µM | HC50 [2]: > 100 µM

HPLC elution [1]: 47.9 % MeCN
Compound: C[C@@H](c1ccccc1)N(CC(N)=O)C(=O)CN(C(=O)CN(CCCCN)C(=O)CN(C(=O)CN(CCCCN)C(=O)CN(CCCCN)C(=O)CN(C(=O)CN(C(=O)CN(CCCCN)C(=O)CN(CCc1c[nH]c2ccccc12)C(=O)CN(CCc1c[nH]c2ccccc12)C(=O)CNCCCCN)[C@@H](C)c1ccccc1)[C@@H](C)c1ccccc1)[C@@H](C)c1ccccc1)[C@@H](C)c1ccccc1 [peptoid 33]
Hmax (100 µM) [2]: 5.0±0.2% | HC10 [2]: > 100 µM | HC50 [2]: > 100 µM

HPLC elution [1]: 48.6 % MeCN
Compound: C[C@@H](c1ccccc1)N(CC(N)=O)C(=O)CN(C(=O)CN(CCCCN)C(=O)CN(C(=O)CN(C(=O)CN(CCCCN)C(=O)CN(C(=O)CN(CCCCN)C(=O)CN(CCCCN)C(=O)CN(CCc1c[nH]c2ccccc12)C(=O)CN(CCc1c[nH]c2ccccc12)C(=O)CNCCCCN)[C@@H](C)c1ccccc1)[C@@H](C)c1ccccc1)[C@@H](C)c1ccccc1)[C@@H](C)c1ccccc1 [peptoid 34]
Hmax (100 µM) [2]: 8.5±1.1% | HC10 [2]: > 100 µM | HC50 [2]: > 100 µM
